Measured values: publication PMC10980815, “Cell surface patching via CXCR4-targeted nanothreads for cancer metastasis inhibition” (Nature Communications, 2024)

Assays:
Assay in all cases: Dose-dependent chemokine receptor occupation assay
Type in all cases: binding, 4T1 murine cells
[1] = biological target: T1, CCR4 (Mus musculus, UniProt P51680); conditions: 4T1 cells, 0.1 nM to 1 mM, 1 h
T1 construct: endogenous in cells; host or cells: 4T1 murine breast cancer cells
T1 sequence (P51680 1-360): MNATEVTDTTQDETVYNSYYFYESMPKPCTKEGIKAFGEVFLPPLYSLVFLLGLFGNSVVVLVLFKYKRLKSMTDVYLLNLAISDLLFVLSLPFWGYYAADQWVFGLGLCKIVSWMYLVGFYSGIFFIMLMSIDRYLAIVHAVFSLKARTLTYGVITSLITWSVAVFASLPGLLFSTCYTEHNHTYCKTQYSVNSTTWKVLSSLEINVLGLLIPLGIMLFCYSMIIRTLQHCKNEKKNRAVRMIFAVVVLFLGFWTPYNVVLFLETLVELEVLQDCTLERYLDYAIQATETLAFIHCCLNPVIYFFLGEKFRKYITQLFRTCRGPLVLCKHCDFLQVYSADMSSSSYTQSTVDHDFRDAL
Method: (§1) To validate the specificity of the BS (CXCR4-binding sequence) to CXCR4, a dose-dependent chemokine receptors occupation assay and a chemokine receptors competitive binding assay were conducted. […] Unoccupied chemokine receptors (CXCR4, CXCR7, CXCR2, CXCR5, and CCR4) on cell surface were stained with PE anti-human CD184/CXCR4 Antibody (1:300 dilution), anti-CXCR7-PE (1:300 dilution), anti-CXCR2-PE (1:300 dilution), anti-CXCR5-PE (1:300 dilution), and PE anti-human CD194/CCR4 Antibody (1:300 dilution) at 4 °C for 1 h, prior to flow cytometry analysis. In the chemokine receptors competitive binding assay, 4T1 cells (5 × 10^5 cells) were pre-blocked with PE anti-human CD184/CXCR4 Antibody (1:300 dilution), anti-CXCR7-PE (1:300 dilution), anti-CXCR2-PE (1:300 dilution), anti-CXCR5-PE (1:300 dilution), and PE anti-human CD194/CCR4 Antibody (1:300 dilution) at 4 °C for 1 h. Subsequently, these cells were treated with P-Cy5-BS-CM1-Cy5 (5 nM Cy5 equivalence) for 1 h. Following the treatments, cells were washed three times with PBS and subjected to flow cytometry analysis.

[2] = biological target: T2, CXCR2 (Mus musculus, UniProt P35343); conditions: 4T1 cells, 0.1 nM to 1 mM, 1 h
T2 construct: endogenous in cells; host or cells: 4T1 murine breast cancer cells
T2 sequence (P35343 1-359): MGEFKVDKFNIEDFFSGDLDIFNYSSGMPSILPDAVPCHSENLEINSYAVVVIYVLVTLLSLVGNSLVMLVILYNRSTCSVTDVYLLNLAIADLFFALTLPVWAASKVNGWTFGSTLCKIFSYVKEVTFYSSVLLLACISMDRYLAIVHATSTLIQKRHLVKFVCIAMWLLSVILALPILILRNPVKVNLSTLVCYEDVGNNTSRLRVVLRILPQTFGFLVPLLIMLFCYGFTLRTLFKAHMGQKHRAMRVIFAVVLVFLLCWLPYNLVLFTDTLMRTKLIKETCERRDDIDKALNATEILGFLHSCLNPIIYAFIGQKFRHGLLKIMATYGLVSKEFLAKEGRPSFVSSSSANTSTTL
Method: as §1

[3] = biological target: T3, CXCR4 (Mus musculus, UniProt P70658); conditions: 4T1 cells, 0.1 nM to 1 mM, 25 °C, 1 h; unoccupied receptor stained with PE antibody
T3 construct: endogenous in cells; host or cells: 4T1 murine breast cancer cells
Method: as §1

[4] = biological target: T4, CXCR5 (Mus musculus, UniProt Q04683); conditions: 4T1 cells, 0.1 nM to 1 mM, 1 h
T4 construct: endogenous in cells; host or cells: 4T1 murine breast cancer cells
T4 sequence (Q04683 1-374): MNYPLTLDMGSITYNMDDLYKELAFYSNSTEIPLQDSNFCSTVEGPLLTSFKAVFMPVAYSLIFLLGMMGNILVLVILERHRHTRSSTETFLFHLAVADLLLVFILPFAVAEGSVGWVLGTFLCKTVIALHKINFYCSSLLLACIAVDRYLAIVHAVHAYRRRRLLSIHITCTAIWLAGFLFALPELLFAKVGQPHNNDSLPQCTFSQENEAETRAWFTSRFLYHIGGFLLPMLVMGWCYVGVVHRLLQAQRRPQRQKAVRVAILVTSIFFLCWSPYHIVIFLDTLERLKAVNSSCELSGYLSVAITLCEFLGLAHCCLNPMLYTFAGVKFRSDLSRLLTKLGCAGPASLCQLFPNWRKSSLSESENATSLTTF
Method: as §1

[5] = biological target: T5, CXCR7 (Mus musculus, UniProt P56485); conditions: 4T1 cells, 0.1 nM to 1 mM, 1 h
T5 construct: endogenous in cells; host or cells: 4T1 murine breast cancer cells
Method: as §1

T5 sequence (P56485 whole entry): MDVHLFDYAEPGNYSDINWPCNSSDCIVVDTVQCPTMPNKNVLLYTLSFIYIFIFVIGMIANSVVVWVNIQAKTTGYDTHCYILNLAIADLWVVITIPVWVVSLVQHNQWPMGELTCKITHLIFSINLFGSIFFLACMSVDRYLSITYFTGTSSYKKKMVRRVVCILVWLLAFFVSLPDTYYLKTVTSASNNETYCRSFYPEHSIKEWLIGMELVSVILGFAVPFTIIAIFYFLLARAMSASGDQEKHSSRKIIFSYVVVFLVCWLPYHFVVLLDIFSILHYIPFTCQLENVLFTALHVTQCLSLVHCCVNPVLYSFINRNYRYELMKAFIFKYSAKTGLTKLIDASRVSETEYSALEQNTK
T3 sequence (P70658 whole entry): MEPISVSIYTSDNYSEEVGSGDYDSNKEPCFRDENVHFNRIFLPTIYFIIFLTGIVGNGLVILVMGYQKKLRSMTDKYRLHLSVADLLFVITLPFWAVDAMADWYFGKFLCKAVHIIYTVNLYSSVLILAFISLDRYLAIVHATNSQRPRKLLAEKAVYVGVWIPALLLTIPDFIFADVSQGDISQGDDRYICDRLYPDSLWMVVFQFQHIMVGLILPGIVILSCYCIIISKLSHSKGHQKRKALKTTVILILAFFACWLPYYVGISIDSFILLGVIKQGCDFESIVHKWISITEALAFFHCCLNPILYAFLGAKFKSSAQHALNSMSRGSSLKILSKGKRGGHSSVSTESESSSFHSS

LGASWHRPDKCCLGYQKRPLPA [Free BS]
CCR4 occupation [1]: did not occupy
CXCR2 occupation [2]: did not occupy
CXCR4 occupation [3]: comparable CXCR4 occupation to AMD3100
CXCR5 occupation [4]: did not occupy
CXCR7 occupation [5]: did not occupy
